Experimental data from patent US20230051589A1, “COMPOUNDS AND COMPOSITIONS FOR TREATING CONDITIONS ASSOCIATED WITH NLRP ACTIVITY” (Novartis AG, priority 2018, published 2023).
Read-outs that look alike come from different tables or passages of the source.

Tested on: IL-1β production in PMA-differentiated THP-1 cells
Experiment: IL-1β production in PMA-differentiated THP-1 cells stimulated with gramicidin (hTHP-1 assay, 2% fetal bovine serum; Procedures 1-3)
Assay type: cell-based, human
Summary of the method: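 IL-1β released into supernatants was read by HTRF after 2 h gramicidin (5 μM) challenge. Before challenge, compounds (3-fold dilutions, top 100 μM, 0.37% DMSO) were given 1 h on THP-1 cells differentiated with PMA (20 ng/ml, 16-18 h) and held in 2% FBS medium.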

[1] = hTHP-1 assay containing 2% fetal bovine serum, Table B2, class symbols, read-out: IC50
[2] = Homo sapiens, THP-1, hTHP-1 assay containing 2% fetal bovine serum, Table B2, class symbols, read-out: IC50
[3] = Homo sapiens, THP-1, Table B3, hTHP-1 assay containing 2% fetal bovine serum, gramicidin stimulation, IL-1β readout, read-out: hTHP-1 IC50
[4] = Homo sapiens, THP-1, Table B1, hTHP-1 assay containing 2% fetal bovine serum, gramicidin stimulation, IL-1β readout, read-out: hTHP-1 IC50 (average)

**Q.** NS(=O)(=NC(=O)Nc1c2c(cc3c1CCC3)CCC2)c1ccc(C2CCNC2)cc1F (stereo not drawn) [Example 500, 2-Fluoro-N′-((1,2,3,5,6,7-hexahydro-s-indacen-4-yl)carbamoyl)-4-(pyrrolidin-3-yl)benzenesulfonimidamide] was tested. Which IC50 [1] did it give?
**A.** 5000 to 30000 nM

**Q.** For CNC(C)(C)c1ccc(S(N)(=O)=NC(=O)Nc2c3c(cc4c2CCC4)CCC3)c(F)c1 (single isomer, unassigned) [Example 593, (R) or (S)-2-fluoro-N′-((1,2,3,5,6,7-hexahydro-s-indacen-4-yl)carbamoyl)-4-(2-(methylamino)propan-2-yl) benzenesulfonimidamide], which IC50 [1] is on record?
**A.** 200 to 1000 nM

**Q.** With CC(C)(O)c1csc(S(N)(=O)=NC(=O)Nc2c3c(cc4c2C(=O)CC4)CCC3)c1 (stereo not drawn) [Example 466, 4-(2-Hydroxypropan-2-yl)-N′-((3-oxo-1,2,3,5,6,7-hexahydro-s-indacen-4-yl)carbamoyl)thiophene-2-sulfonimidamide] as the molecule, how does the IC50 [2] read?
**A.** 200 to 1000 nM

**Q.** With NS(=O)(=NC(=O)Nc1c2c(cc3c1CCC3)CCC2)c1ccc([C@H]2CCCN2)s1 (stereo partly drawn) [Example 731, N′-((1,2,3,5,6,7-hexahydro-s-indacen-4-yl)carbamoyl)-5-((R)-pyrrolidin-2-yl)thiophene-2-sulfonimidamide] as the molecule, how does the IC50 [3] read?
**A.** 200 to 1000 nM

**Q.** For CCc1ccc2cn(C)nc2c1NC(=O)N=S(N)(=O)c1ncc(C(C)(C)O)s1 (single isomer, unassigned) [Example 329, (S) or (R)-N′-((6-ethyl-2-methyl-2H-indazol-7-yl)-carbamoyl)-5-(2-hydroxy-propan-2-yl)thiazole-2-sulfonimidamide], which IC50 [4] is on record?
**A.** > 30000 nM

**Q.** How did the IC50 [2] turn out when CC(C)(O)c1ncc(S(N)(=O)=NC(=O)Nc2c3c(c(Cl)c4c2CCC4)CCC3)s1 (stereo not drawn) [Example 450, N′-((8-chloro-1,2,3,5,6,7-hexahydro-s-indacen-4-yl)carbamoyl)-2-(2-hydroxypropan-2-yl)thiazole-5-sulfonimidamide] was run?
**A.** 40 to 200 nM

**Q.** How did the IC50 [3] turn out when NS(=O)(=NC(=O)Nc1c2c(cc3c1CC3)CCC2)c1cc2c(s1)CCNC2C(F)F (single isomer, unassigned) [Example 782, (S) or (R) -4-(difluoromethyl)-N′-((2,4,5,6-tetrahydro-1H-cyclobuta[f]inden-3-yl)carbamoyl)-4,5,6,7-tetrahydrothieno[3,2-c]pyridine-2-sulfonimidamide] was run?
**A.** 200 to 1000 nM

**Q.** CNCc1csc(S(N)(=O)=NC(=O)Nc2c3c(cc4c2CCC4)CCC3)c1 (single isomer, unassigned) [Example 692, (S) or (R)-N′-((1,2,3,5,6,7-hexahydro-s-indacen-4-yl)carbamoyl)-4-((methylamino)methyl)thiophene-2-sulfonimidamide] was tested. Which IC50 [1] did it give?
**A.** 1000 to 5000 nM

**Q.** For NS(=O)(=NC(=O)Nc1c2c(cc3c1CCC3)CCC2)c1ccc(C2CCCC2)nc1 (single isomer, unassigned) [Example 587, (R) or (S)-6-cyclopentyl-N′-((1,2,3,5,6,7-hexahydro-s-indacen-4-yl)carbamoyl)pyridine-3-sulfonimidamide], which IC50 (hTHP-1 assay containing 2% fetal bovine serum, Table B2, given as bound, read-out: IC50) is on record?
**A.** > 30000 nM

**Q.** With CNC(c1ccc(S(N)(=O)=NC(=O)Nc2c3c(cc4c2CC4)CCC3)s1)C1CC1 (single isomer, unassigned) [Example 721, 5-((R) or (S)-cyclopropyl(methylamino)methyl)-N′-((2,4,5,6-tetrahydro-1H-cyclobuta[f]inden-3-yl)carbamoyl)thiophene-2-sulfonimidamide] as the molecule, how does the IC50 [3] read?
**A.** 8 to 40 nM

**Q.** For CCn1ccc(S(N)(=O)=NC(=O)Nc2c3c(cc4c2CC4)CCC3)n1 (stereo not drawn) [Example 737, 1-Ethyl-N′-((2,4,5,6-tetrahydro-1H-cyclobuta[f]inden-3-yl)carbamoyl)-1H-pyrazole-3-sulfonimidamide], which IC50 [3] is on record?
**A.** 200 to 1000 nM

**Q.** Which IC50 [3] does the source give for C[C@](O)(CO)c1ncc(S(N)(=O)=NC(=O)Nc2c3c(cc4c2CC4)CCC3)s1 (stereo partly drawn) [Example 741, 2-((S)-1,2-dihydroxypropan-2-yl)-N′-((2,4,5,6-tetrahydro-1H-cyclobuta[f]inden-3-yl)carbamoyl)thiazole-5-sulfonimidamide] here?
**A.** 8 to 40 nM

**Q.** For CN1CCc2cc(S(N)(=O)=NC(=O)Nc3c4c(cc5c3CCC5)CCC4)sc2C1 (single isomer, unassigned) [Compound 413a], which IC50 [4] is on record?
**A.** 40 to 200 nM

**Q.** With CNS(=O)(=NC(=O)Nc1c2c(c(F)c3c1CCC3)CCC2)c1cc(C(C)(C)O)cs1 (single isomer, unassigned) [Example 181] as the molecule, how does the IC50 (Table B1, hTHP-1 assay containing 2% fetal bovine serum, gramicidin stimulation, IL-1β readout, read-out: hTHP-1 IC50 (average)) read?
**A.** 5000 to 30000 nM

**Q.** For CC(O)(CO)c1cc(F)c(S(N)(=O)=NC(=O)Nc2c3c(c(C#N)c4c2CCC4)CCC3)s1 (single isomer, unassigned) [Example 633], which IC50 [1] is on record?
**A.** 5000 to 30000 nM

**Q.** With NS(=O)(=NC(=O)Nc1c2c(cc3c1CC3)CCC2)c1sc2c(c1F)COCC2 (single isomer, unassigned) [Example 842, (S) or (R)-3-fluoro-N′-((2,4,5,6-tetrahydro-1H-cyclobuta[f]inden-3-yl)carbamoyl)-6,7-dihydro-4H-thieno[3,2-c]pyran-2-sulfonimidamide] as the molecule, how does the IC50 (Table B3, hTHP-1 assay containing 2% fetal bovine serum, gramicidin stimulation, IL-1β readout, read-out: hTHP-1 IC50) read?
**A.** 5000 to 30000 nM

**Q.** With C[C@]1(c2ncc(S(N)(=O)=NC(=O)Nc3c4c(cc5c3CCC5)CCC4)s2)CNC(=O)O1 (stereo partly drawn) [Example 674, N′-((1,2,3,5,6,7-hexahydro-s-indacen-4-yl)carbamoyl)-2-((R)-5-methyl-2-oxooxazolidin-5-yl)thiazole-5-sulfonimidamide] as the molecule, how does the IC50 [2] read?
**A.** 40 to 200 nM

**Q.** Which IC50 [3] does the source give for CNCc1csc(S(N)(=O)=NC(=O)Nc2c3c(cc4c2CC4)CCC3)c1F (stereo not drawn) [Example 777, 3-Fluoro-4-((methylamino)methyl)-N′-((2,4,5,6-tetrahydro-1H-cyclobuta[f]inden-3-yl)carbamoyl)thiophene-2-sulfonimidamide] here?
**A.** 40 to 200 nM

**Q.** Which IC50 [2] does the source give for CC(C)n1nc([S@@](N)(=O)=NC(=O)Nc2c3c(cc4c2C(=O)CC4)CCC3)cc1C(C)(C)O [Compound 908b] here?
**A.** 200 to 1000 nM

**Q.** Which IC50 [1] does the source give for CN(C)C(c1ccc(S(N)(=O)=NC(=O)Nc2c3c(cc4c2CCC4)CCC3)cc1)C(F)F (single isomer, unassigned) [Example 644, (R,R) or (S,R)-4-(-1-(dimethylamino)-2,2-difluoroethyl)-N′-((1,2,3,5,6,7-hexahydro-s-indacen-4-yl)carbamoyl) benzenesulfonimidamide] here?
**A.** 200 to 1000 nM

**Q.** Which IC50 [1] does the source give for COc1ccc(Cn2nc(S(N)(=O)=NC(=O)Nc3c4c(cc5c3CCC5)CCC4)cc2C(C)(C)O)cc1 (stereo not drawn) [Example 457, N′-((1,2,3,5,6,7-hexahydro-s-indacen-4-yl)carbamoyl)-5-(2-hydroxypropan-2-yl)-1-(4-methoxybenzyl)-1H-pyrazole-3-sulfonimidamide] here?
**A.** 200 to 1000 nM

**Q.** NS(=O)(=NC(=O)Nc1c2c(cc3c1CCC3)CCC2)c1ccccc1 (stereo not drawn) [Example 488, N′-((1,2,3,5,6,7-hexahydro-s-indacen-4-yl)carbamoyl)benzenesulfonimidamide] was tested. Which IC50 [2] did it give?
**A.** 5000 to 30000 nM

**Q.** For CC(C)(O)c1cc(F)c(S(N)(=O)=NC(=O)Nc2c3c(cc4c2C(=O)CC4)CCC3)s1 (single isomer, unassigned) [Example 538, (S) or (R)-3-fluoro-5-(2-hydroxypropan-2-yl)-N′-((3-oxo-1,2,3,5,6,7-hexahydro-s-indacen-4-yl)carbamoyl) thiophene-2-sulfonimidamide], which IC50 [1] is on record?
**A.** 5000 to 30000 nM

**Q.** CC(O)(CO)c1nc(CO)c(S(N)(=O)=NC(=O)Nc2c3c(cc4c2CC4)CCC3)s1 (stereo not drawn) [Example 757, 2-(1,2-Dihydroxypropan-2-yl)-4-(hydroxymethyl)-N′-((2,4,5,6-tetrahydro-1H-cyclobuta[f]inden-3-yl)carbamoyl)thiazole-5-sulfonimidamide] was tested. Which IC50 [3] did it give?
**A.** 40 to 200 nM

**Q.** With NS(=O)(=NC(=O)Nc1c2c(cc3c1CC3)CCC2)c1sc2c(c1F)COCC2 (stereo not drawn) [Example 770, 3-Fluoro-N′-((2,4,5,6-tetrahydro-1H-cyclobuta[f]inden-3-yl)caibamoyl)-6,7-dihydro-4H-thieno[3,2-c]pyran-2-sulfonimidamide] as the molecule, how does the IC50 [3] read?
**A.** 200 to 1000 nM

**Q.** CC(O)(CO)c1nc(CO)c(S(N)(=O)=NC(=O)Nc2c3c(cc4c2CCC4)CCC3)s1 (stereo not drawn) [Example 753, 2-(1,2-Dihydroxypropan-2-yl)-N′-((1,2,3,5,6,7-hexahydro-s-indacen-4-yl)carbamoyl)-4-(hydroxymethyl)thiazole-5-sulfonimidamide] was tested. Which IC50 [3] did it give?
**A.** 40 to 200 nM

**Q.** How did the IC50 [2] turn out when CC(C)(O)c1nc(CO)c(S(N)(=O)=NC(=O)Nc2c3c(cc4c2C(=O)CC4)CCC3)s1 (stereo not drawn) [Compound 914] was run?
**A.** 1000 to 5000 nM

**Q.** How did the IC50 [2] turn out when CN(C)C(CF)c1ccc(S(N)(=O)=NC(=O)Nc2c3c(cc4c2CCC4)CCC3)cc1 (stereo not drawn) [Example 480, 4-(1-(Dimethylamino)-2-fluoroethyl)-N′-((1,2,3,5,6,7-hexahydro-s-indacen-4-yl)carbamoyl)benzenesulfonimidamide] was run?
**A.** 1000 to 5000 nM

**Q.** Which IC50 [2] does the source give for C=CCNCc1ccc([S@](N)(=O)=NC(=O)Nc2c3c(cc4c2CCC4)CCC3)cc1 [Example 699, (R)-4-((allylamino)methyl)-N′-((1,2,3,5,6,7-hexahydro-s-indacen-4-yl)carbamoyl)-benzenesulfonimidamide] here?
**A.** 1000 to 5000 nM

**Q.** For NS(=O)(=NC(=O)Nc1c2c(cc3c1CCC3)CCC2)c1ccccc1 (single isomer, unassigned) [Example 612, (R) or (S)-N′-((1,2,3,5,6,7-hexahydro-s-indacen-4-yl)carbamoyl) benzenesulfonimidamide], which IC50 (Homo sapiens, THP-1, hTHP-1 assay containing 2% fetal bovine serum, Table B2, given as bound, read-out: IC50) is on record?
**A.** > 30000 nM
